{"source": "patent US20230181905A1", "about": "“Systems, Devices, and Methods for Enhancing the Neuroprotective Effects of Non-Invasive Gamma Stimulation with Pharmacological Agents” (Massachusetts Institute of Technology, priority 2021, published 2023)", "system": "vGLUT1", "experiment": "vGLUT1 western blot and puncta, overall and within WFA", "format": "in vivo, mouse", "conditions": "5×FAD mice", "description": "It was reasoned that the increased WFA coverage and enhanced phase locking of neurons after these treatments are related. […] WFA has been predominantly observed around interneurons, specifically PV interneurons. vGLUT1 (Synaptic Systems, #1135 302), an excitatory synaptic marker, was labeled with WFA. It was observed that the overall vGLUT1 signal was higher after Plx3397+GENUS treatment in mice (ANOVA, F (3,22)=3,686, P=0.0273) (FIGS. 18A, 18B). WFA was 3D rendered and surface created and examined (vGLUT1) within WFA, and observed increased vGLUT1 within WFA (Nested ANOVA, F (3,29)=3.377, P=0.0493) (FIGS. 18A, 18C).\nvGAT and vGLUT1 puncta: LSM 710, with a 40× objective, was used to acquire the images. The entire […] thickness of the slices was acquired in Z stacks—80 per image (step of 0.5 μm). The spot-count inbuilt function in Imarisx64 9.3 was used to count cells automatically.\nThese observations point to synaptic connectivity, PNN extracellular architecture, and myelination as biological processes that GENUS impacts to improve the outcomes in Plx3397 administered 5×FAD mice. To further validate this, additional biochemical analyses were performed. […]\nThe brain was perfused with PBS and fixed with 4% PFA. […] Signal intensities were quantified using ImageJ 1.46q and normalized to values of loading control.", "data": [{"smiles": "FC(F)(F)c1ccc(CNc2ccc(Cc3c[nH]c4ncc(Cl)cc34)cn2)cn1", "note": "[Plx3397, Pexidartinib]", "values": [{"measurement": "vGLUT1 level (western blot)", "setting": "visual cortex, control 100±7.30", "result": "130.1±10.05"}, {"measurement": "vGLUT1 synaptic puncta in the WFA of PV interneurons", "setting": "controls 313.4±13.20", "result": "332.7±13.14 % of no treatment control"}]}]}
